# Reference: patent publication US8936807B2, “Use of the cathelicidin LL-37 and derivatives thereof for wound healing” (Lipopeptide AB, priority 2003, dated 2015)
# Experiments:
# HaCat cells [1] = assay: Proliferation of HaCat cells assessed by flowcytometry and Trypan-Blue; assay type: cell-based, human; conditions: for Increased Proliferation (%): vs baseline
# Experimental: HaCat cells were used for these experiments. HaCat cells are an immortalized human keratinocyte cell line (Boukamp et al., J Cell Biol 106:761-771, 1988), which is suitable for experimental keratinocyte research. HaCat cells were cultured in medium (DMEM, +10% FCS and PEST). Both types of cell cultures were treated with synthetic, bioactive LL-37 (lot YS 5253). […] Cells were harvested at different time-points (24 h, 48 h, 72 h and 96 h) and counted by flowcytometry (Becton-Dickinson) and stained by Trypan-Blue to evaluate viability. […] Proliferation and viability were also ascertained by measuring mitochondrial activity (WST-1, Roche, Cook et al. Anal Biochem 179:1-7, 1989).
# HaCat cells [2] = assay: Proliferation and viability of HaCat cells measured by mitochondrial activity (WST-1); assay type: cell-based, human; conditions: LL-37 100 μg/ml, 10% serum, 48 h
# Experimental: HaCat cells were used for these experiments. HaCat cells are an immortalized human keratinocyte cell line (Boukamp et al., J Cell Biol 106:761-771, 1988), which is suitable for experimental keratinocyte research. HaCat cells were cultured in medium (DMEM, +10% FCS and PEST). Both types of cell cultures were treated with synthetic, bioactive LL-37 (lot YS 5253). In addition a mixture of LL-37 (114 μg/ml) and CPL-Galactolipid (0.2%) in medium containing serum at either 2 or 10% was added to evaluate the capacity to increase proliferation and inhibit cytotoxicity. Cells were harvested at different time-points (24 h, 48 h, 72 h and 96 h) and counted by flowcytometry (Becton-Dickinson) and stained by Trypan-Blue to evaluate viability. […] Proliferation and viability were also ascertained by measuring mitochondrial activity (WST-1, Roche, Cook et al. Anal Biochem 179:1-7, 1989).
# HaCat cells [3] = assay: Proliferation of HaCat cells assessed by 3H-Thymidine incorporation; assay type: cell-based, human; conditions: 10% serum, 96 h; for Increased Proliferation (%): vs control 0 μg/ml
# Experimental: HaCat cells were cultured in medium (DMEM, +10% FCS and PEST). HaCaT cells were plated in 96 well plates (Falcon, USA) at the concentration of 2000 cells per well. Cells were plated at −48 hours and stimulated with different concen-trations of synthetic LL-37, LL-36, and LL-38 peptide by hour 0 and after 48 hours.
# The testing was done in one experiment with 6 wells in each condition. […] of ^3H-Thymidine (THYMIDINE, [METHYL-^3H]-740.0 GBq/mmol (20.00 Ci/mmol) 1.0 ml of Ethanol:Water, 7:3, Perkin Elmer Life Sciences Inc. Boston Mass., USA) was added to each well and incubated for 12-17 hours. Proliferation was evaluated by ^3H-Thymidine incorporation a liquid scintilator (MicroBeta Perkin Elmer Life Sciences Inc. Boston Mass., USA) after 72 and 96 hours.
# Human Wound Fibroblast = assay: Proliferation and viability of human wound fibroblasts (WST-1); assay type: cell-based; conditions: 48 Hours; for Increased Proliferation (%): vs control
# Text: (§1) The peptide LL-37 used in this and following tests was as described in Example 1 (lot 971/26). The fibroblasts, a type of stromal cells, were obtained from injured and uninjured skin in patients with chronic leg ulcers due to venous insufficiency. Punch-biopsies (4-mm) were taken from the wound margin including 50% of the epithelialized area and from uninjured skin in the knee region. Individuals with a history of diabetes mellitus, arterial insufficiency or chronic inflammatory disease were excluded. Patients with signs of eczema in the ulcer margin, clinical signs of infection or undergoing systemic or topical antibiotic treatment at the time for biopsy were also excluded. Patients included were all treated with inert local dressings and standard compression bandaging.
# (§2) Fibroblast were put in culture using explant technique (Hehenberger et al., Cell Biochem Funct 15:197-201, 1997). Fibroblasts were plated in 96 well plates (Falcon, USA) at the concentration of 2000 cells per well. Cells were plated at −48 hours and stimulated with different concentrations of synthetic LL-37 peptide by hour 0. The testing was done in one experiment with 6 wells in each condition. Proliferation and viability were ascertained by measuring mitochondrial activity (WST-1, Roche) after 24 h and 48 h. Increase in cell proliferation (Proliferation Index) is calculated in comparison with baseline (Control=0 μg/ml). Mean values from six samples per condition in one experiment are presented.
# Human Normal Fibroblast = assay: Proliferation and viability of human normal fibroblasts (WST-1); assay type: cell-based; conditions: 10% serum, 48 Hours; for Increased Proliferation (%): vs control
# Text: as §1, §2
# [4] = LL-37 25 μg/ml, 10% serum, 96 h
# [5] = LL-37 50 μg/ml, 10% serum, 96 h
# [6] = LL-37 100 μg/ml, 2% serum, 96 h
# [7] = LL-37 100 μg/ml, 10% serum, 96 h
# [8] = LL-37 100 μg/ml, no lipid, 2% serum, 72 h
# [9] = LL-37 100 μg/ml, no lipid, 10% serum, 72 h
# [10] = LL-37 100 μg/ml, with lipid 0.2%, 2% serum, 72 h
# [11] = LL-37 100 μg/ml, with lipid 0.2%, 10% serum, 72 h
# [12] = LL-37 25 μg/ml, no lipid, 10% serum
# [13] = LL-37 50 μg/ml, no lipid, 10% serum
# [14] = LL-37 100 μg/ml, no lipid, 10% serum
# [15] = LL-37 100 μg/ml, with lipid 0.2%, 2% serum
sequence,measurement,setting,value
LLGDFFRKSKEKIGKEFKRIVQRIKDFLRNLVPRTES [LL-37],Number of Cells (Mean),"HaCat cells [1]; LL-37 25 μg/ml, 2% serum, 96 h",32130
same,Trypan Blue + (%),"HaCat cells [1]; LL-37 25 μg/ml, 2% serum, 96 h",<1%
same,Increased Proliferation (%),"HaCat cells [1]; LL-37 25 μg/ml, 2% serum, 96 h",0%
same,Number of Cells (Mean),HaCat cells [1]; [4],36470
same,Trypan Blue + (%),HaCat cells [1]; [4],<1%
same,Increased Proliferation (%),HaCat cells [1]; [4],13%
same,Number of Cells (Mean),"HaCat cells [1]; LL-37 50 μg/ml, 2% serum, 96 h",53620
same,Trypan Blue + (%),"HaCat cells [1]; LL-37 50 μg/ml, 2% serum, 96 h",30-50%
same,Increased Proliferation (%),"HaCat cells [1]; LL-37 50 μg/ml, 2% serum, 96 h",Cytotoxic effect
same,Number of Cells (Mean),HaCat cells [1]; [5],40950
same,Trypan Blue + (%),HaCat cells [1]; [5],<1%
same,Increased Proliferation (%),HaCat cells [1]; [5],27%
same,Number of Cells (Mean),HaCat cells [1]; [6],15120
same,Trypan Blue + (%),HaCat cells [1]; [6],100%
same,Increased Proliferation (%),HaCat cells [1]; [6],Cytotoxic effect
same,cytotoxic effect when lipid was added (in words),"HaCat cells [1]; LL-37 100 μg/ml, 2% serum, lipid added",completely abolished
same,Number of Cells (Mean),HaCat cells [1]; [7],66430
same,Trypan Blue + (%),HaCat cells [1]; [7],<1%
same,Increased Proliferation (%),HaCat cells [1]; [7],100%
same,Trypan Blue staining (in words),"HaCat cells [1]; LL-37 100 μg/ml, medium containing 2% FCS",all of the keratinocytes became positive with Trypan Blue staining
same,Number of Cells (Mean),HaCat cells [1]; [8],150500
same,Trypan Blue + (%),HaCat cells [1]; [8],100%
same,Increased Proliferation (%),HaCat cells [1]; [8],Cytotoxic effect
same,Number of Cells (Mean),HaCat cells [1]; [9],88853
same,Trypan Blue + (%),HaCat cells [1]; [9],<1%
same,Increased Proliferation (%),HaCat cells [1]; [9],61%
same,Number of Cells (Mean),HaCat cells [1]; [10],87360
same,Trypan Blue + (%),HaCat cells [1]; [10],<1%
same,Increased Proliferation (%),HaCat cells [1]; [10],58%
same,Number of Cells (Mean),HaCat cells [1]; [11],91980
same,Trypan Blue + (%),HaCat cells [1]; [11],<1%
same,Increased Proliferation (%),HaCat cells [1]; [11],66%
same,proliferation of HaCat cells (in words),"HaCat cells [1]; LL-37 25-100 μg/ml, media with 10% FCS",increases proliferation in a concentration-dependent manner
same,Absorbance,HaCat cells [2],1.110
same,Trypan Blue + (%),HaCat cells [2],<1%
same,Increased Proliferation (%),HaCat cells [2]; vs baseline,78%
same,Counts Per Minute (Mean),HaCat cells [3]; LL-37 1.00 μg/ml,75445 Counts Per Minute
same,Increased Proliferation (%),HaCat cells [3]; LL-37 1.00 μg/ml,43%
same,Counts Per Minute (Mean),HaCat cells [3]; LL-37 5.00 μg/ml,102353 Counts Per Minute
same,Increased Proliferation (%),HaCat cells [3]; LL-37 5.00 μg/ml,94%
same,Counts Per Minute (Mean),HaCat cells [3]; LL-37 10.00 μg/ml,73548 Counts Per Minute
same,Increased Proliferation (%),HaCat cells [3]; LL-37 10.00 μg/ml,39%
same,Counts Per Minute (Mean),HaCat cells [3]; LL-37 25.00 μg/ml,76510 Counts Per Minute
same,Increased Proliferation (%),HaCat cells [3]; LL-37 25.00 μg/ml,45%
same,Counts Per Minute (Mean),HaCat cells [3]; LL-37 50.00 μg/ml,65119 Counts Per Minute
same,Increased Proliferation (%),HaCat cells [3]; LL-37 50.00 μg/ml,23%
same,Absorbance,Human Wound Fibroblast; [12],1.171
same,Increased Proliferation (%),Human Wound Fibroblast; [12],49%
same,Absorbance,Human Wound Fibroblast; [13],1.073
same,Increased Proliferation (%),Human Wound Fibroblast; [13],37%
same,Absorbance,Human Wound Fibroblast; [14],0.955
same,Increased Proliferation (%),Human Wound Fibroblast; [14],22%
same,Absorbance,Human Wound Fibroblast; [15],0.960
same,Increased Proliferation (%),Human Wound Fibroblast; [15],22%
same,Absorbance,Human Normal Fibroblast; LL-37 25 μg/ml,0.597
same,Increased Proliferation (%),Human Normal Fibroblast; LL-37 25 μg/ml,7%
same,Absorbance,Human Normal Fibroblast; LL-37 50 μg/ml,0.626
same,Increased Proliferation (%),Human Normal Fibroblast; LL-37 50 μg/ml,12%
same,Absorbance,Human Normal Fibroblast; LL-37 100 μg/ml,0.669
same,Increased Proliferation (%),Human Normal Fibroblast; LL-37 100 μg/ml,19%
